How the values were obtained:
Beta-secretase 1 [1] = molecular target: T1, Beta-secretase 1 (Homo sapiens, UniProt P56817); assay: Inhibition of human recombinant BACE1 at 100 uM
Beta-secretase 1 [2] = molecular target: T1, Beta-secretase 1; assay: Inhibition of human recombinant BACE1; parameters: concentration or dose not given beside the values; conditions: concentration not given here

T1 sequence (P56817 whole entry): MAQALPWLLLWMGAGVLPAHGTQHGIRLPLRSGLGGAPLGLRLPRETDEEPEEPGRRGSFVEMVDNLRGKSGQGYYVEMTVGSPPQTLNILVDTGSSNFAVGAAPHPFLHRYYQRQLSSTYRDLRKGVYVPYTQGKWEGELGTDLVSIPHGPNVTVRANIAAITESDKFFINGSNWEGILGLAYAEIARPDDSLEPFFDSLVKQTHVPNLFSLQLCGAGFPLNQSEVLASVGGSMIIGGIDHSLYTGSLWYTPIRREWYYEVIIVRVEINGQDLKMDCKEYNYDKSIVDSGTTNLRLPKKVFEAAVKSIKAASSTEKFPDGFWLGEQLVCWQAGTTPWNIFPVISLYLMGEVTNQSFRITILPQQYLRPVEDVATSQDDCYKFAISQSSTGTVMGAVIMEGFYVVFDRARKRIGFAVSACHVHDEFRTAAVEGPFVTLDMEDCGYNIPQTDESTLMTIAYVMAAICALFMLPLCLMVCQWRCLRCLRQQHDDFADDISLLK

Compound	IC50 (Beta-secretase 1 [1]) [µM]	inhibition (Beta-secretase 1 [2]) [%]
Cc1ccc(NC(=O)CN2C(=O)/C(=N\NC(=O)c3cc([N+](=O)[O-])ccc3O)c3ccccc32)cc1	2.4	84.5
Cc1ccc(NC(=O)CN2C(=O)/C(=N\NC(=O)c3cccc([N+](=O)[O-])c3)c3ccccc32)cc1	–	28.8
COc1ccc([N+](=O)[O-])cc1C(=O)N/N=C1\C(=O)N(CC(=O)Nc2ccc(C)cc2)c2ccccc21	–	20.2
O=C(CN1C(=O)/C(=N\NC(=O)c2cc([N+](=O)[O-])ccc2O)c2ccccc21)Nc1ccc(C(F)(F)F)cc1	–	74.6
Cc1ccc(NC(=O)CN2C(=O)/C(=N\NC(=O)c3ccccc3O)c3ccccc32)cc1	–	71.1

More lines, now with the values ahead:

IC50 (Beta-secretase 1 [1]) [µM]	inhibition (Beta-secretase 1 [2]) [%]	Compound
–	35.2	O=C1Nc2ccccc2/C1=N/NC(=O)c1cc([N+](=O)[O-])ccc1O
4.8	92	O=C(CN1C(=O)/C(=N\NC(=O)c2cc([N+](=O)[O-])ccc2O)c2ccccc21)NC1CCCCC1
–	14.3	CN1C(=O)/C(=N\NC(=O)c2cc([N+](=O)[O-])ccc2O)c2ccccc21

— ChEMBL document CHEMBL1154387, “Discovery of novel non-peptide inhibitors of BACE-1 using virtual high-throughput screening” (Bioorg Med Chem Lett, 2009)
